Results published in US12326492B2, “Systems and methods of detecting interstitial cystitis” (LIPELLA PHARMACEUTICALS, INC., priority 2014, dated 2025).

Assay: MRI bladder phantom permeability assay (dialysis membrane in gelatin, spin-echo MRI)
Format: physicochemical
Details: membrane 12-14 kD MW cutoff, 425 μM Gd-DTPA, 5 mM Ferumoxytol in lumen
From the text: FIG. 2 is a schematic of synthetic model system (an MRI “bladder phantom”) where membrane porosity and soft matter diffusivity can be controlled. The MRI bladder phantom, shown in FIG. 2, was constructed from clear polycarbonate cylindrical tubes having an outer diameter of 35 mm, a wall thickness of 4 mm, and a length of 90 mm. A sealed (70 mm length, 7 mm diameter) segment of a filled wet dialysis membrane was suspended in the center of each polycarbonate tube lumen and aligned with the tube length, during which a liquid solution (3.125% w/w) of hydrolyzed collagen was added to the lumen of the tube (but not the lumen of the dialysis membrane) and allowed to gel. The dialysis membrane porosity was 12-14 kD MW cutoff. The bladder phantom was placed in a standard mouse MRI RF coil for imaging on a 3-Tesla bench top MRI system with a bore diameter of 160 mm and a 70 mm field of view (MR Solutions, Surrey, UK). […]
This dark line is indicative of a lack of hydrogen nuclei in the liquid state where the dialysis membrane is located, a position that represents the luminal surface of the bladder. […] Since the entire lumen has an increased signal intensity, it is difficult to see without quantitative tools if the gadopentetate dimeglumine (Gd-DTPA) is diffusing into the gelatin an issue that becomes more relevant in a biological setting. […]

With `CNC[C@H](O)[C@@H](O)[C@H](O)[C@H](O)CO.CNC[C@H](O)[C@@H](O)[C@H](O)[C@H](O)CO.O=C([O-])CN(CCN(CC(=O)[O-])CC(=O)O)CCN(CC(=O)[O-])CC(=O)O.[Gd+3]` [Magnevist, Gadopentetate dimeglumine] the “diffusion across the dialysis membrane” value was “porosity large enough to allow gadopentetate dimeglumine (Gd-DTPA) to pass”.

Assay: not given
Details: T1-reducing contrast agents, Table 1; cited from earlier work

Going from `O=C([O-])CN1CCN(CC(=O)[O-])CCN([C@H](CO)[C@H](O)CO)CCN(CC(=O)[O-])CC1.[Gd+3]` (racemic) [Gadovist, Gadobutrol] to `O=C([O-])CN(CCN(CC(=O)[O-])CC(COP(=O)([O-])OC1CCC(c2ccccc2)(c2ccccc2)CC1)N(CC(=O)[O-])CC(=O)[O-])CC(=O)[O-].[Gd+3].[Na+].[Na+].[Na+]` (stereo not shown) [Ablavar, Gadofosveset trisodium], the “Average Diameter” value rises from 8 Å to 10 Å.

Compared with `CCOc1ccc(CC(CN(CCN(CC(=O)[O-])CC(=O)[O-])CC(=O)[O-])N(CC(=O)[O-])CC(=O)[O-])cc1.[Gd+3].[Na+].[Na+]` (stereo not shown) [Eovist, Gadoxetate Disodium], `CNC[C@H](O)[C@@H](O)[C@H](O)[C@H](O)CO.CNC[C@H](O)[C@@H](O)[C@H](O)[C@H](O)CO.O=C([O-])CN(CCN(CC(=O)[O-])CC(=O)O)CCN(CC(=O)[O-])CC(=O)O.[Gd+3]` [Magnevist, Gadopentetate dimeglumine] is higher in “Average Diameter” value: 9 Å for the first, 10 Å for the second.

Compared with `CNC[C@H](O)[C@@H](O)[C@H](O)[C@H](O)CO.CNC[C@H](O)[C@@H](O)[C@H](O)[C@H](O)CO.O=C([O-])CN(CCN(CC(=O)[O-])CC(=O)O)CCN(CC(=O)O)C(COCc1ccccc1)C(=O)[O-].[Gd+3]` (stereo not shown) [MultiHance, Gadobenate Dimeglumine], `CNC(=O)CN(CCN(CCN(CC(=O)[O-])CC(=O)NC)CC(=O)[O-])CC(=O)[O-].[Gd+3]` [Omniscan, Gadodiamide] is lower in “Average Diameter” value: 11 Å for the first, 8 Å for the second.

Going from `COCCNC(=O)CN(CCN(CCN(CC(=O)[O-])CC(=O)NCCOC)CC(=O)[O-])CC(=O)[O-].[Gd+3]` [OptiMARK, Gadoversetamide] to `CC(O)CN1CCN(CC(=O)[O-])CCN(CC(=O)[O-])CCN(CC(=O)[O-])CC1.[Gd+3]` (stereo not shown) [ProHance, Gadoteridol], the “Average Diameter” value falls from 8 Å to 7 Å.

For Gadoterate meglumine [Dotarem], the “Average Diameter” value is listed as 9 Å.
